From article PMC9925730, “Controlled sequential in situ self-assembly and disassembly of a fluorogenic cisplatin prodrug for cancer theranostics” (Nature Communications, 2023)

How the values were obtained:
ALP = molecular target: T1, ALP (Bos taurus, UniProt P19111); experiment: NIR FL, PA and absorption signals of P-CyPt in solution in response to ALP; type: biochemical; settings: P-CyPt 10 μM; for normalized Abs. at 700 nm (Fig. 2j) / normalized Abs. at 750 nm (Fig. 2j) / normalized FL intensity at 710 nm (Fig. 2k) / normalized PA intensity at 700 nm (Fig. 2l) / normalized PA intensity at 750 nm (Fig. 2l): ALP 100 U/L 37 °C
T1 construct: Alkaline phosphatase from bovine; purchased Sigma-Aldrich; host or cells: bovine intestinal mucosa (tissue-derived)
Experimental: To monitor the NIR FL and PA imaging signals of P-CyPt in response to ALP, P-CyPt (10 μM) in Tris buffer (1 mL) was incubated with ALP (100 U/L) at 37 °C for 0, 5, 10, 15, 20, and 30 min. To monitor the NIR FL and PA imaging signals of Pt^IVNPs in response to GSH, P-CyPt (10 μM) in Tris buffer (1 mL) was first incubated with ALP (100 U/L) at 37 °C for 30 min and then incubated with 10 mM GSH at 37 °C for another 10, 20, 30, 40, 50, and 60 min. The NIR FL spectra of these solutions at each time point were acquired on a HORIBA Jobin Yvon Fluoromax-4 fluorescence spectrometer, with excitation at 680 nm. For PA imaging, the incubation solutions at each time point were loaded into a fine bore polythene tube ([…], 1.27 mm OD). The tubes were then sealed and immersed in water. The PA images at both 700 and 750 nm were acquired on the Vevo 2100 LAZR system (FUJIFILM VisualSonics).

HeLa cells = experiment: NIR FL and PA bimodality imaging of cell pellets; type: cell-based, human; settings: for normalized FL of cell pellets (Fig. 3c): 30 min
s.c. HeLa tumors = experiment: Ex vivo FL imaging of resected tumors and organs; type: in vivo, mice; settings: 4 h post i.v. injection
Experimental: Supplementary Figure 27. Ex vivo FL imaging of tumors and main organs. (a) Representative ex vivo FL images (λex/em = 660/750 ± 50 nm) and (b) average FL intensities of tumors and main organs resected from P-CyPt- or PtIVNPs-treated HeLa […]
200 μL). After 4 h, the mice were sacrificed. Tumors (T) and main organs, including liver (L), heart (H), spleen (Sp), lung (Lu), kidney (K), stomach (St), and intestine (In) were resected, and the FL images were acquired on the IVIS spectrum imager. Values denote mean ± s.d. (n = 3 independent animals). Statistical difference was analyzed by Student’s two-sided t-test. Source data are provided as a Source Data file.
Supplementary Figure 28. FL imaging of resected tumor tissue slices. FL images of tumor tissue slices (10 μm thickness) resected from s.c. HeLa tumor-bearing mice at 4 h after i.v. injection of PBS (200 μL), PtIVNPs or P-CyPt (100 μM, 200 μL). Cell nuclei were co-stained with DAPI (blue). […]
μm. […] The fluorescence images of the MCTS were captured on a Leica TCS SP8 confocal laser scanning microscope, microscope (TCS SP8 STED 3X) with 10x/0.4 dry lens (Leica), and captured at RGB on a HyD detector (Leica Dmi8) under PI and Cy5.5 channels. […]
were sacrificed after 4 h. […] The fluorescence images of these organs and tumors were acquired with the IVIS Lumina XR III imaging system using a 660 nm excitation filter and a 750 ± 50 nm emission filter. […]

[1] = HeLa, P-CyPt 10 μM 30 min then blank medium 3 h (Group II vs I)

T1 sequence (P19111 20-506 limits assumed): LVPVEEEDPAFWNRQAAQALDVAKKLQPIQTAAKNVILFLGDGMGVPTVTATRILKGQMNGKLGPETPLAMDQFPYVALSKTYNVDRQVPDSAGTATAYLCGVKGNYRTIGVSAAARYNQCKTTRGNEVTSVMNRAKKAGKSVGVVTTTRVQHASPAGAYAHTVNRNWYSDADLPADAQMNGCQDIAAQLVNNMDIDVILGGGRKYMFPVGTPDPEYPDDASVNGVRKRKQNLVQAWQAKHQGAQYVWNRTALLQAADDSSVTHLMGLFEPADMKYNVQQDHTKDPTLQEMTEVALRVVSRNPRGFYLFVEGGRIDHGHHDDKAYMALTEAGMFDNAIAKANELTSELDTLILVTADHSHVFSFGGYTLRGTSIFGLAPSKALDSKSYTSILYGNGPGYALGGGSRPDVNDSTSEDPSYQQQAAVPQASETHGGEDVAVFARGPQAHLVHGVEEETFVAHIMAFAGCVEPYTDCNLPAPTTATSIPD

For `CC1(C)C(/C=C/C2=C3Oc4cc(OP(=O)(O)O)c(Cl)cc4C=C3CCC2)=[N+](CCCNC(=O)[C@@H](Cc2ccccc2)NC(=O)[C@@H](Cc2ccccc2)NC(=O)CCC(=O)[O][Pt]([NH2])([NH2])([OH])([Cl])[Cl])c2ccccc21` [P-CyPt], the “normalized Abs. at 700 nm (Fig. 2j)” value (ALP; 0 min) was 0.03754, the “normalized Abs. at 750 nm (Fig. 2j)” value (ALP; 0 min) was 0.01756 and the “normalized FL intensity at 710 nm (Fig. 2k)” value (from here on “normalized FL intensity”) (ALP; 0 min) was 0.979. The “normalized PA intensity at 700 nm (Fig. 2l)” value (ALP; 0 min) was 0.1461, the “normalized PA intensity at 750 nm (Fig. 2l)” value (ALP; 0 min) was 0.1527 and the “normalized Abs. at 700 nm (Fig. 2j)” value (ALP; 5 min) was 0.6947. For the same molecule, the “normalized Abs. at 750 nm (Fig. 2j)” value (ALP; 5 min) was 0.2821, the “normalized FL intensity” value (ALP; 5 min) was 5.873 and the “normalized PA intensity at 700 nm (Fig. 2l)” value (ALP; 5 min) was 0.4821. The “normalized PA intensity at 750 nm (Fig. 2l)” value (ALP; 5 min) was 0.3333, the “normalized Abs. at 700 nm (Fig. 2j)” value (ALP; 10 min) was 0.8107 and the “normalized Abs. at 750 nm (Fig. 2j)” value (ALP; 10 min) was 0.4361. The “normalized FL intensity” value (ALP; 10 min) was 6.541, the “normalized PA intensity at 700 nm (Fig. 2l)” value (ALP; 10 min) was 0.5922 and the “normalized PA intensity at 750 nm (Fig. 2l)” value (ALP; 10 min) was 0.5187. For the same molecule, the “normalized Abs. at 700 nm (Fig. 2j)” value (ALP; 15 min) was 0.8996, the “normalized Abs. at 750 nm (Fig. 2j)” value (ALP; 15 min) was 0.6102 and the “normalized FL intensity” value (ALP; 15 min) was 6.902. For the same molecule, the “normalized PA intensity at 700 nm (Fig. 2l)” value (ALP; 15 min) was 0.7009, the “normalized PA intensity at 750 nm (Fig. 2l)” value (ALP; 15 min) was 0.788 and the “normalized Abs. at 700 nm (Fig. 2j)” value (ALP; 20 min) was 0.9422. The “normalized Abs. at 750 nm (Fig. 2j)” value (ALP; 20 min) was 0.6514, the “normalized FL intensity” value (ALP; 20 min) was 7.672 and the “normalized PA intensity at 700 nm (Fig. 2l)” value (ALP; 20 min) was 0.8542. For the same molecule, the “normalized PA intensity at 750 nm (Fig. 2l)” value (ALP; 20 min) was 0.9373, the “normalized Abs. at 700 nm (Fig. 2j)” value (ALP; 30 min) was 0.996 and the “normalized Abs. at 750 nm (Fig. 2j)” value (ALP; 30 min) was 0.688. For the same molecule, the “normalized FL intensity” value (ALP; 30 min) was 7.9669, the “normalized PA intensity at 700 nm (Fig. 2l)” value (ALP; 30 min) was 0.9524 and the “normalized PA intensity at 750 nm (Fig. 2l)” value (ALP; 30 min) was 1.0015. The “NIR FL at 710 nm switched on” value (ALP; ALP 100 U/L, after 30 min) was ~ 8 fold, the “increase of PA signal at 700 nm” value (ALP; ALP 100 U/L, after 30 min) was “more than sixfold” and the “increase of PA signal at 750 nm” value (ALP; ALP 100 U/L, after 30 min) was “more than sixfold”. The “normalized FL of cell pellets (Fig. 3c)” value (HeLa cells; Group I: HeLa, P-CyPt 10 μM) was 0.6736, the “normalized FL of cell pellets (Fig. 3c)” value (HeLa cells; Group II: HeLa, P-CyPt 10 μM, then blank medium 3 h) was 1 and the “normalized FL of cell pellets (Fig. 3c)” value (HeLa cells; Group III: HeLa preincubated with Na3VO4 (10 mM, 20 min), then P-CyPt 10 μM) was 0.2415. The “decrease of PA signal at 750 nm in cell pellets” value (HeLa cells; [1]) was ~ 3.5 fold, the “increase of NIR FL in cell pellets” value (HeLa cells; [1]) was ~ 1.5 fold and the “ex vivo tumor FL intensity higher than Pt^IVNPs-treated tumors” value (s.c. HeLa tumors) was ~ 3.2 fold.
